In patent US20240139154A1, “Methods of Reducing Risk of Prostate Cancer Progression” (Astellas Pharma Inc., priority 2021, published 2024):
Read-outs that look alike come from different tables or passages of the source.

Columns and labels:
[1] = test system: low risk or intermediate risk prostate cancer; assay: ENACT study: biopsy outcomes (negative biopsies, percentage of cancer-positive cores) at 1 and 2 years; assay type: in vivo, human
Source text: This was followed by a one year follow up period, and a further continued follow-up period of at least one-year, until the last patient completed the 24-month visit.
(§1) Secondary endpoints were (1) Incidence of negative biopsies for cancer at 1 year and 2 years; (2) percentage of cancer-positive cores at 1 year and 2 years; (3) time to PSA progression; and (4) incidence of a secondary rise in serum PSA at 1 year and 2 years. “PSA progression” is defined as a ≥25% increase in serum PSA from baseline, a ≥25% increase above nadir, or an absolute increase of ≥2 ng/mL.
(§2) Secondary endpoint of incidence of negative biopsy for cancer was summarized using frequencies and percentages at one and two years by treatment groups. […] Analysis of time to PSA progression was performed using the same method used to analyze the primary endpoint. P-values were adjusted using the Bonferroni-Holm method to control type I error at 0.05 for selected secondary endpoints.

serum PSA = assay: ENACT study: time to PSA progression and secondary rise in serum PSA; assay type: in vivo, human; conditions: for Hazard Ratio (95% CI), time to PSA progression: Cox regression
Method: as §1, §2

[2] = ENACT study: adverse events (safety set); assay type: in vivo, human
Source text: The full analysis set (FAS) was the patients who were enrolled in the study and randomized to one or the other of the study arms. The safety set (SAF) was redefined in the Statistical Analysis Plan (SAP) to include only subjects who took the study drug. The FAS was 227 patients (113 in the active surveillance arm, 114 in the enzalutamide arm). The SAF had 112 subjects in the enzalutamide arm.
As expected, the incidence of Drug-Related Adverse Events (AEs) were reported in 92.0% (103/112) of the enzalutamide patients during the treatment period plus 30 days. Of the patients on active surveillance, 54.9% (62/113) experienced an adverse event from randomization until date completed 12 months on study plus 30 days. The most common Drug-Related AE seen in the enzalutamide group was fatigue (52.7%). Adverse events which occurred in ≥3.5% of enzalutamide patients were fatigue (55.4%), gynecomastia (36.6%), nipple pain (30.4%), breast tenderness (25.9%), and erectile dysfunction (17.9%). The only AE that occurred in ≥3.5% of the patients on active surveillance was hypertension (7.1%). […] Observed AE data were consistent with the known safety profile of enzalutamide.

[3] = test system: low risk or intermediate risk prostate cancer; conditions: for Hazard Ratio (95% CI), time to prostate cancer progression: enzalutamide/AS, Cox regression, HR<1 favors enzalutamide
[4] = ENACT study: adverse events (safety set); assay type: in vivo, human; conditions: During 1-year continued follow-up period, n = 112

In the case of `CNC(=O)c1ccc(N2C(=S)N(c3ccc(C#N)c(C(F)(F)F)c3)C(=O)C2(C)C)cc1F` [enzalutamide, Enzalutamide], the “Percentage of cancer-positive cores at 1 year, LS mean change from baseline ± SE” value ([1]; 1 year, n = 90) is reported as −12.97 ± 1.99%, the “Biopsy result at 1 year: Positive, %” value ([1]; 1 year, n = 114) is reported as “(46.5) %” and the “Biopsy result at 1 year: Unknown, %” value ([1]; 1 year, n = 114) is reported as “(18.4) %”. For the same compound, the “Incidence of negative biopsy at 1 year: Negative, %” value ([1]; 1 year, n = 114) was 35.1%, the “Percentage of cancer-positive cores at 2 years, LS mean change from baseline ± SE” value ([1]; 2 years, n = 53) was −6.68 ± 2.37% and the “Biopsy result at 2 years: Positive, %” value ([1]; 2 years, n = 100) was “(47.0) %”. For the same compound, the “Biopsy result at 2 years: Unknown, %” value ([1]; 2 years, n = 100) was “(34.0) %”, the “Incidence of negative biopsy at 2 years: Negative, %” value ([1]; 2 years, n = 100) was 19.0% and the “reduction in the mean percentage of cancer-positive cores within the enzalutamide arm” value ([1]; between baseline and year two) was 6.7%. The “Percentage of cancer-positive cores at 1 year, Difference in LS means ± SE” value ([1]; enzalutamide vs AS, 1 year) was −10.07 ± 2.40%, the “Percentage of cancer-positive cores at 2 years, Difference in LS means ± SE” value ([1]; enzalutamide vs AS, 2 years) was −5.15 ± 3.17% and the “OR (95% CI), negative biopsy at 1 year” value ([1]; enzalutamide vs AS, exact logistic regression, 1 year) was 3.5 (1.76, 6.92). For the same compound, the “OR (95% CI), negative biopsy at 2 years” value ([1]; enzalutamide vs AS, exact logistic regression, 2 years) was 1.6 (0.66, 4.00), the “OR (95% CI), negative biopsy at 2 years” value ([1]; enzalutamide vs AS, exact logistic regression, 2 years, listed as Enzalutamide) was 1.6 (0.66, 4.00) and the “likelihood of a negative biopsy at one year compared to the control population” value ([1]; one year) was “at least three times more likely”. The “Incidence of a secondary rise in serum PSA at 1 year, PSA response, %” value (serum PSA; 1 year, n = 114) was “(24.6) %”, the “Incidence of a secondary rise in serum PSA at 2 years, PSA response, %” value (serum PSA; 2 years, n = 100) was “(92.0) %” and the “Median Time to PSA Progression (95% CI)” value (serum PSA; FAS, Kaplan-Meier) was 14.82. For the same compound, the “No. Censored (time to PSA progression), %” value (serum PSA; FAS, N = 114) was 15.8%, the “No. of Events (PSA progression), %” value (serum PSA; FAS, N = 114) was 84.2% and the “OR (95% CI), secondary rise in serum PSA at 1 year” value (serum PSA; enzalutamide vs AS, 1 year) was 0.1 (0.08, 0.26). The “OR (95% CI), secondary rise in serum PSA at 2 years” value (serum PSA; enzalutamide vs AS, 2 years) was 1.1 (0.37, 3.53), the “Hazard Ratio (95% CI), time to PSA progression” value (serum PSA; enzalutamide vs AS, FAS) was 0.714 (0.525, 0.972) and the “Hazard Ratio (95% CI), time to PSA progression” value (serum PSA; enzalutamide vs AS, FAS, listed as Enzalutamide) was 0.71 (0.53, 0.97). The “Time to PSA progression, Median (95% CI)” value (serum PSA; n = 114) was 14.8 months, the “PSA rebound following cessation of treatment” value (serum PSA; observed at month 15 onwards) was “PSA rebound was demonstrated” and the “delay of PSA progression” value (serum PSA; versus AS) was 6 months. For the same compound, the “AEs leading to death, %” value ([2]; During 1-year treatment period, n = 112) was 0.9%, the “most common Drug-Related AE: fatigue” value ([2]; human, in vivo) was 52.7% and the “Drug-related AEs leading to discontinuation of study drug, %” value ([2]; human, in vivo, 1 year) was 7.1%. The “Drug-related AEs ≥ grade 3, %” value ([2]; human, in vivo, 1 year) was 5.4%, the “Drug-related AEs, %” value ([2]; human, in vivo, 1 year) was 88.4% and the “Drug-related SAEs, %” value ([2]; human, in vivo, 1 year) was 2.7%. The “TEAEs ≥ grade 3, %” value ([2]; human, in vivo, 1 year) was 9.8%, the “Adverse Event: Alopecia, %” value ([2]; human, in vivo, 12 months) was “(9.8%)” and the “Adverse Event: Hypertension, %” value ([2]; human, in vivo, 12 months) was “(7.1%)”. The “Adverse Event: Libido Decreased, %” value ([2]; human, in vivo, 12 months) was “(8.0%)”, the “tolerability of enzalutamide monotherapy” value ([2]; in vivo) was “well-tolerated” and the “Median Progression Free Survival / median time to pathological or therapeutic prostate cancer progression” value ([3]; FAS, Kaplan-Meier, NR = not reached) was “not reached”. The “No. Censored (progression free survival), %” value ([3]; FAS, N = 114) was 71.9%, the “No. of Events (prostate cancer progression), %” value ([3]; FAS, N = 114, 160 mg/day) was 28.1% and the “reduction in risk of prostate cancer progression” value ([3]; compared to patients on active surveillance) was 46%. For the same compound, the “Hazard Ratio (95% CI), time to prostate cancer progression” value ([3]; FAS) was 0.542 (0.330, 0.892), the “Hazard Ratio (95% CI), time to prostate cancer progression” value ([3]; FAS, listed as Enzalutamide) was 0.54 (0.33, 0.89) and the “AEs leading to death, %” value [4] was 1.8%.
